Experimental data published in PMC12394895, “Detection and characterisation of ligand-induced conformational changes in acetylcholine binding proteins using biosensors and X-ray crystallography” (RSC Chemical Biology, 2025).

Key:
Ls-AChBP [1] = target: T1, Ls-AChBP (Lymnaea stagnalis, UniProt P58154); test: SAW biosensor, phase signal; format: binding; details: pH 7.4, 25 °C, 5% DMSO; immobilised protein; unreliable (very rough approximation, steady state not always reached)
T1 construct: soluble homopentamer, AChBP pentamer 125 kDa; amine-coupled for SAW and GCI
T1 sequence (P58154 20-229): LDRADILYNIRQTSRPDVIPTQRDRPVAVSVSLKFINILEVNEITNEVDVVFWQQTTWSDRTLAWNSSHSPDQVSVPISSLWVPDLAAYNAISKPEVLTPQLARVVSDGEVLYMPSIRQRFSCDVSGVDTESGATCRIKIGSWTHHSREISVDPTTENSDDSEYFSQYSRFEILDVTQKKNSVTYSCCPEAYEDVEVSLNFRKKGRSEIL
Description: SAW biosensor, phase signal on Ls-AChBP

Ls-AChBP [2] = target: T1, Ls-AChBP; test: GCI biosensor, steady state; format: binding

`CC(=O)OCC[N+](C)(C)C` [acetylcholine] was tested, and the “Phase KD” value (Ls-AChBP [1]) was 0.61 µM.
`CCn1ccnc1-c1cccc(-c2ccccn2)n1` [VUF24234] showed a Kd (Ls-AChBP [2]) of 5 µM.
For VUF6105, the “Phase KD” value (Ls-AChBP [1]) was 12 µM.
`CN1CCC[C@H]1c1cccnc1` [nicotine] was tested, and the “Phase KD” value (Ls-AChBP [1]) was 0.035 µM.
For `Cn1ccnc1/C=C/c1ccc(O)c(O)c1` [VUF22430], the Kd (Ls-AChBP [2]) was 1.3 µM.
